From patent publication US20060251574A1, “Cytotoxins and diagnostic imaging agents comprising hsp90 ligands” (priority 2002, published 2006)

System: HSP90
Protocol: Purified native HSP90 protein (Stressgen) or cell lysates prepared in lysis buffer (20 mM Hepes, pH 7.3, 1 mM EDTA, 5 mM MgCl2, 100 mM KCl) were incubated in the absence or presence of CF7 (17-AAG) or test compound for 15 min at 4° C. […] BioMag™ streptavidin magnetic beads were then added to the mixture, and the reaction was incubated by rotating for another 1 hr at 4° C. Tubes were placed on a magnetic rack, and the unbound supernatant removed. The magnetic beads were washed three times in lysis buffer, and the washes discarded. SDS-PAGE sample buffer was added to the beads and boiled for 5 min at 95° C. Samples were analyzed on 10% SDS protein gels (Novex), and then Western blots using anti-HSP90 monoclonal antibody (Stressgen SPA-830). The bands in the Western Blots were quantitated using the Bio-rad Fluor-S Imager, and the % inhibition of binding of CF7 or test compound calculated. The IC50 reported is the concentration of the compound needed to cause half-maximal inhibition of binding. For experiments that utilized shocked HSP90, the purified HSP90 native protein was incubated for 15 min at 90° C. For experiments that utilized bis-ANS treated HSP90, the purified HSP90 protein was incubated with bis-ANS (Molecular Probes) for 30 min at 37° C.

17-allylamino-geldanamycin [17-AAG]
apparent binding affinity for HSP90, tumor cells versus normal cells or purified HSP90 (FIG. 4) (BT474 lysate vs fibroblasts, RPTEC, purified HSP90): higher apparent binding affinity for HSP90 from tumor cells (BT474) than normal cells (fibroblasts, RPTEC) or purified HSP90 alone
apparent binding affinity for HSP90, high Her2 expressing cells versus normal cells, heat-shocked or bis-ANS treated HSP90 (FIG. 5) (SKOY-3, SKBR-3, N87 lysates): higher apparent binding affinity for HSP90 from the specific high Her2 expressing cells, SKOY-3, SKBR-3, and N87, than from normal cells, heat-shocked HSP90, or bis-ANS treated HSP90
